In patent EP2526945A1, “New CRTH2 Antagonists” (Almirall, S.A., priority 2011, dated 2012) one finds IC50 data, which are given here for 22 compounds.

pIC50: −log10 of the molar value.

The test deals with T1, CRTh2 receptor (Homo sapiens, UniProt Q9Y5Y4).
T1 construct: expressed in transfected cells; host or cells: CHO.K1 cells (membranes)
T1 sequence (Q9Y5Y4 1-395): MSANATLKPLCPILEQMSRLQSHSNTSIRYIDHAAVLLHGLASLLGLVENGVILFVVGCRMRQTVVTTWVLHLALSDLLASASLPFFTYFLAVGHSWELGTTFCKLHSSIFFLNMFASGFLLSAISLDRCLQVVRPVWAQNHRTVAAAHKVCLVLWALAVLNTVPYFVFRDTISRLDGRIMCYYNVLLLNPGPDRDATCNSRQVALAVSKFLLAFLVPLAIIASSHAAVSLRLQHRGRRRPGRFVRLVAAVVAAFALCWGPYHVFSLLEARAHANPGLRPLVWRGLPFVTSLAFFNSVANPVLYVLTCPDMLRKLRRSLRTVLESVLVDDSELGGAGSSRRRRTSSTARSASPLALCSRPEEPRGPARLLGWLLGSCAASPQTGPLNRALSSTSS
The test is described as follows: CRTh2 GTPγS antagonism binding assay. To be noted: membranes from CHO.K1 cells stably overexpressing the CRTh2 receptor; PGD2 at 50 nM (EC80); [35S]-GTPγS as radioligand; read-out: GTPγ Binding. The test is classed as biochemical. How it is done: CRTh2 GTPγS antagonism binding assay
The assay is performed using membranes obtained from CHO.K1 cells stably overexpressing the CRTh2 receptor and [^35S]-GTPγS as radioligand. Assay is performed pre-incubating 4-8 µg of membranes per well with the compound to be tested for 1 h, followed by incubation with PGD2 at 50 nM (EC80), 0.1 nM [^35S]-GTPγS in incubation buffer (20 mM HEPES, 10 mM MgCl2, 100 mM NaCl, 10 µM GDP, 10 µg/ml Saponine and 0.2% BSA) for 2 h at room temperature. The reaction is terminated by filtering in GF/C plates pre-treated with 20 mM HEPES, 10 mM MgCl2, 100 mM NaCl and washing 6 times with wash buffer (20 mM NaH2PO4, 20 mM Na2HPO4). After washing, plates are dried and scintillation buffer Optiphase added. The radioactivity retained in the filter is counted using a Microbeta liquid scintillation counter.
As to `COc1cccc(Cc2c3c(n(CC(=O)O)c2C)CCNC3=O)c1S(=O)(=O)c1ccccc1` [Example 21, {3-[3-Methoxy-2-(phenylsulfonyl)benzyl]-2-methyl-4-oxo-4,5,6,7-tetrahydro-1H-pyrrolo[3,2-c]pyridin-1-yl}acetic acid], the pIC50 is 7.70. Next, `Cc1c(Cc2ccccc2S(=O)(=O)c2ccccc2)c2c(n1[C@H](C)C(=O)O)CCNC2=O` [Example 20, (2R)-2-{2-Methyl-4-oxo-3-[2-(phenylsulfonyl)benzyl]-4,5,6,7-tetrahydro-1H-pyrrolo [3,2-c]pyridin-1-yl}propanoic acid]: 8.04; `Cc1c(Cc2cccn2S(=O)(=O)c2ccccc2)c2c(n1CC(=O)O)CCNC2=O` [Example 44, (2-Methyl-4-oxo-3-{[1-(phenylsulfonyl)-1H-pyrrol-2-yl]methyl}-4,5,6,7-tetrahydro-1 H-pyrrolo[3,2-c]pyridin-1-yl)acetic acid]: 8.23; `Cc1c(Cc2ccccc2S(=O)(=O)C2CCCCC2)c2c(n1CC(=O)O)CCNC2=O` [Example 23, {3-[2-(Cyclohexylsulfonyl)benzyl]-2-methyl-4-oxo-4,5,6,7-tetrahydro-1H-pyrrolo[3,2-c]pyridin-1-yl}acetic acid]: 7.57. Consider `Cc1c(Cc2ccccc2S(=O)(=O)c2ccccc2)c2c(n1CC(=O)O)CCN(C(C)C(F)(F)F)C2=O` (stereo not shown) [Example 71, [2-Methyl-4-oxo-3-[2-(phenylsulfonyl)benzyl]-5-(2,2,2-trifluoro-1-methylethyl)-4,5,6,7-tetrahydro-1H-pyrrolo[3,2-c]pyridin-1-yl]acetic acid], for which the pIC50 is 8.24.

Take `COc1ccc(S(=O)(=O)c2ccccc2Cc2c3c(n(CC(=O)O)c2C)CCNC3=O)cc1` [Example 15, (3-{2-[(4-Methoxyphenyl)sulfonyl]benzyl}-2-methyl-4-oxo-4,5,6,7-tetrahydro-1H-pyrrolo[3,2-c]pyridin-1-yl)acetic acid]: the pIC50 is 8.41. The figure for `CNC(=O)c1ccc(Cc2c3c(n(CC(=O)O)c2C)CCNC3=O)c(S(=O)(=O)c2ccccc2)c1` [Example 31, {2-Methyl-3-[4-[(methylamino)carbonyl]-2-(phenylsulfonyl)benzyl]-4-oxo-4,5,6,7-tetrahydro-1H-pyrrolo[3,2-c]pyridin-1-yl}acetic acid] is 8.02; for `Cc1c(Cc2ccccc2S(=O)(=O)c2ccccc2)c2c(n1CC(=O)O)CCN(Cc1ccccc1)C2=O` [Example 36, {5-Benzyl-2-methyl-4-oxo-3-[2-(phenylsulfonyl)benzyl]-4,5,6,7-tetrahydro-1H-pyrrolo[3,2-c]pyridin-1-yl}acetic acid] it is 8.82; for `Cc1c(Cc2ccccc2S(=O)(=O)c2ccccc2F)c2c(n1CC(=O)O)CCNC2=O` [Example 17, (3-{2-[(2-Fluorophenyl)sulfonyl]benzyl}-2-methyl-4-oxo-4,5,6,7-tetrahydro-1H-pyrrolo[3,2-c]pyridin-1-yl)acetic acid] it is 8.44. The figure for `Cc1c(Cc2cc(Br)ccc2S(=O)(=O)c2ccccc2)c2c(n1CC(=O)O)CCNC2=O` [Example 42, {3-[5-Bromo-2-(phenylsulfonyl)benzyl]-2-methyl-4-oxo-4,5,6,7-tetrahydro-1H-pyrrolo[3,2-c]pyridin-1-yl}acetic acid] is 8.41; for `Cc1c(Cc2ccccc2S(=O)(=O)c2ccccc2)c2c(n1CC(=O)O)CC(C)(C)NC2=O` [Example 58, {2,6,6-Trimethyl-4-oxo-3-[2-(phenylsulfonyl)benzyl]-4,5,6,7-tetrahydro-1H-pyrrolo[3,2-c]pyridin-1-yl}acetic acid] it is 8.35. The figure for `Cc1c(Cc2ccc(S(=O)(=O)Cc3ccccc3)cc2)c2c(n1CC(=O)O)CCNC2=O` [Example 39, {3-[4-(Benzylsulfonyl)benzyl]-2-methyl-4-oxo-4,5,6,7-tetrahydro-1H-pyrrolo[3,2-c]pyridin-1-yl}acetic acid] is 8.54. On to `Cc1c(Cc2ccccc2S(=O)(=O)N2CCOCC2)c2c(n1CC(=O)O)CCNC2=O` [Example 24, {2-Methyl-3-[2-(morpholin-4-ylsulfonyl)benzyl]-4-oxo-4,5,6,7-tetrahydro-1H-pyrrolo[3,2-c]pyridin-1-yl}acetic acid], for which the pIC50 was 7.70. Next, `Cc1c(Cc2ccccc2S(=O)(=O)c2ccc(Cl)cc2)c2c(n1CC(=O)O)CCNC2=O` [Example 14, (3-{2-[(4-Chlorophenyl)sulfonyl]benzyl}-2-methyl-4-oxo-4,5,6,7-tetrahydro-1H-pyrrolo[3,2-c]pyridin-1-yl)acetic acid]: 8.08; `Cc1c(Cc2ccc(C(=O)O)cc2S(=O)(=O)c2ccccc2)c2c(n1CC(=O)O)CCNC2=O` [Example 29, 4-{[1-(Carboxymethyl)-2-methyl-4-oxo-4,5,6,7-tetrahydro-1H-pyrrolo[3,2-c]pyridin-3-yl]methyl}-3-(phenylsulfonyl)benzoic acid]: 7.74. The figure for `Cc1c(Cc2ccccc2S(=O)(=O)c2ccc(OC(F)(F)F)cc2)c2c(n1CC(=O)O)CCNC2=O` [Example 16, [2-Methyl-4-oxo-3-(2-{[4-(trifluoromethoxy)phenyl]sulfonyl}benzyl)-4,5,6,7-tetrahydro-1H-pyrrolo[3,2-c]pyridin-1-yl]acetic acid] is 8.16; for `Cc1c(Cc2ccccc2S(=O)(=O)c2ccc(F)cc2)c2c(n1CC(=O)O)CC(C)(C)NC2=O` [Example 60, (3-{2-[(4-Fluorophenyl)sulfonyl]benzyl}-2,6,6-trimethyl-4-oxo-4,5,6,7-tetrahydro-1 H-pyrrolo[3,2-c]pyridin-1-yl)acetic acid] it is 8.30; for `Cc1c(Cc2ccccc2S(=O)(=O)c2cccc(Cl)c2)c2c(n1CC(=O)O)CCNC2=O` [Example 8, (3-{2-[(3-Chlorophenyl)sulfonyl]benzyl}-2-methyl-4-oxo-4,5,6,7-tetrahydro-1H-pyrrolo[3,2-c]pyridin-1-yl)acetic acid] it is 8.40. Next, `Cc1c(Cc2ccccc2S(=O)(=O)c2ccc(F)cc2)c2c(n1CC(=O)O)CCNC2=O` [Example 4, (3-{2-[(4-Fluorophenyl)sulfonyl]benzyl}-2-methyl-4-oxo-4,5,6,7-tetrahydro-1H-pyrrolo[3,2-c]pyridin-1-yl)acetic acid]: 8.49; `COc1ccc(S(=O)(=O)c2ccc(F)cc2)c(Cc2c3c(n(CC(=O)O)c2C)CC(C)(C)NC3=O)c1` [Example 62, (3-{2-[(4-Fluorophenyl)sulfonyl]-5-methoxybenzyl}-2,6,6-trimethyl-4-oxo-4,5,6,7-tetrahydro-1H-pyrrolo[3,2-c]pyridin-1-yl)acetic acid]: 8.32; `COc1cccc(S(=O)(=O)c2ccccc2Cc2c3c(n(CC(=O)O)c2C)CCNC3=O)c1` [Example 34, (3-{2-[(3-Methoxyphenyl)sulfonyl]benzyl}-2-methyl-4-oxo-4,5,6,7-tetrahydro-1H-pyrrolo[3,2-c]pyridin-1-yl)acetic acid]: 7.92. For `Cc1c(Cc2ccccc2S(=O)(=O)c2ccccc2)c2c(=O)n(C)ccc2n1CC(=O)O` [Example 75, {2,5-Dimethyl-4-oxo-3-[2-(phenylsulfonyl)benzyl]-4,5-dihydro-1H-pyrrolo[3,2-c]pyridin-1-yl}acetic acid], the pIC50 is 8.31.
